Measured values from KR20200058863A, “루테인 장용성 고체분산체를 유효성분으로 함유하는 위산보호용 조성물 및 이를 포함하는 경구용 제제” (중앙대학교 산학협력단, priority 2018, dated 2020).
Like-named read-outs stand apart in the source and are kept apart here.

Key:
[1] = In vitro dissolution in artificial gastric/intestinal fluid and successive pH (USP 29 apparatus 2); type: physicochemical; settings: artificial gastric fluid pH 1.2, 120 min
[2] = physchem; settings: ph 1.2 solution
[3] = intestinal fluid, pH 6.8; spectra over 24 h
[4] = physchem; settings: artificial gastric fluid, pH 1.2
[5] = PXRD crystallinity of lutein and solid dispersions; type: physicochemical; settings: 2θ 5° to 50°, room temperature
[6] = physchem; settings: artificial gastric fluid, pH 1.2; remark: listed apart in the source
[7] = intestinal condition pH 6.8, 37 ± 0.5 ℃, 100 rpm

- acid resistance ([1]; 37 ± 0.5 ℃, 100 rpm): 산저항성을 나타내었으며
- lutein detected in dissolution medium ([1]; low solubility): 검출되지 않았다
- remaining at 12 h [2]: 14.7%
- change of lutein absorbance spectrum [3]: 유의한 변화가 확인되지 않았다
- degraded at 2 h [4]: 70%
- crystallinity (PXRD peaks) [5]: 다양한 특유의 피크를 갖는 고도의 결정구조
- degraded at 24 h [6]: ~50%
- lutein content (pH 1.2, 0 h): 10.31 ± 0.29 mg
- lutein ratio (pH 1.2, 0 h): 100%
- lutein content (pH 1.2, after 12 h): 1.51 ± 0.03 mg
- change of lutein [7]: 루테인 변화가 나타나지 않았다
SMILES: CC1=C[C@H](O)CC(C)(C)[C@H]1/C=C/C(C)=C/C=C/C(C)=C/C=C/C=C(C)/C=C/C=C(C)/C=C/C1=C(C)C[C@@H](O)CC1(C)C [루테인]
